This assay relates to EAAT2. Put plainly: EAAT2 protein levels in PA-EAAT2 cells by Western blot. The note with it: for Fold increase for EAAT2, 4 h / Fold increase for EAAT2, 24 h: compound 10 μM, PA-EAAT2 cells, relative to DMSO controls, na = not active; for Fold increase for EAAT2, 4 h: 4 h incubation; for Fold increase for EAAT2, 24 h: 24 h incubation; for SAR comparison of activity on EAAT2 protein levels, in words: relative to parent/comparator analogue, Tables 1-4. The format is cell-based, human. On the procedure:
All of the derivates of 1 were initially evaluated in PA-EAAT2 cells^3 (a primary astrocyte line stably expressing EAAT2 mRNAs) following compound (10 μM) incubation for 4 and 24 h before harvesting and measuring EAAT2 levels by Western blot analysis. The fold increases in EAAT2 protein levels relative to DMSO controls are reported (Tables 1-4).
Characterization and efficacy studies of a compound, Compound 212320 (FIG. 6A) is shown. […] In the absence of serum, PA-EAAT2 cells express low amounts of EAAT2 protein, although the recombinant EAAT2 mRNA are expressed (translational silencing); however, EAAT2 protein levels are increased when an activator is added to the culture (translational activation). This cell line was used for high-throughput screening to identify EAAT2 translational activators. To prioritize candidate compounds, we initially evaluated activation of EAAT2 protein in PA-EAAT2 cells. Promising compounds were further evaluated in primary dissociated neuron and astrocyte mixed cultures and then in mice. FIG. 6 presents the characterization of Compound 212320 in PA-EAAT2 cells. Compound 212320 increased EAAT2 protein levels in a dose—(FIG. 6B) and time—(FIG. 6C) dependent manner. Importantly, the induction occurred in a short amount of time (within 1-2 hr) and was sustained even up to 72 hr (data not show). Additionally, induction occurred at low nanomolar concentrations. […] (FIG. 6D).

Each structure is given as a SMILES string.

As for `Clc1ccccc1CCSc1ccc(-c2ccccn2)nn1` [Compound 7-31], the “Fold increase for EAAT2, 4 h” value was 1.7 ± 0.2 fold; the “Fold increase for EAAT2, 24 h” value was found to be 4.8 ± 0.6 fold; the “SAR comparison of activity on EAAT2 protein levels, in words” value (shortened to “SAR comparison of activity”) is “more potent”.

Regarding `Fc1cccc(Cl)c1CCOc1ccc(-c2ccccn2)nn1` [Compound 8-5], the “Fold increase for EAAT2, 4 h” value is 2.2 ± 0.4 fold and the “Fold increase for EAAT2, 24 h” value was 3.1 ± 1.2 fold.

For the compound `Cc1ccc(CSc2ccc(-c3ccccn3)nn2)cc1` [Compound 7-10], the “Fold increase for EAAT2, 4 h” value is 2.1 ± 1.1 fold and the “Fold increase for EAAT2, 24 h” value was determined as 2.6 ± 0.4 fold.

For the compound `Oc1ccc(-c2ccccn2)nn1` [Compound 5-1], the “Fold increase for EAAT2, 4 h” value worked out at 1.5 ± 0.5 fold and the “Fold increase for EAAT2, 24 h” value came out at 1.6 ± 1.0 fold.

With `Fc1cccc(Cl)c1CSc1ccc(-c2ccncc2)nn1` [Compound 7-2], the “Fold increase for EAAT2, 24 h” value came out at 1.9 ± 0.9 fold and the “SAR comparison of activity” value is given as “reduced activity”.

As to `Fc1cccc(Cl)c1COc1ccc(-c2ccccn2)nn1` [Compound 8-2], the “Fold increase for EAAT2, 4 h” value turned out to be 1.1 ± 0.3 fold and the “Fold increase for EAAT2, 24 h” value turned out to be 2.9 ± 0.4 fold.

As to `Cc1cccc(C)c1COc1ccc(-c2ccccn2)nn1` [Compound 8-3], the “Fold increase for EAAT2, 4 h” value is given as 2.1 ± 1.2 fold and the “Fold increase for EAAT2, 24 h” value is given as 3.2 ± 1.4 fold.

Consider `Fc1ccccc1CSc1ccc(-c2ccccn2)nn1` [Compound 7-23], for which the “Fold increase for EAAT2, 4 h” value is 2.2 ± 0.1 fold; the “Fold increase for EAAT2, 24 h” value is on record as 3.1 ± 0.2 fold; the “SAR comparison of activity” value is on record as “improved activity”.

For `CCSc1ccc(-c2ccccn2)nn1` [Compound 7-36], the “Fold increase for EAAT2, 4 h” value was 1.6 ± 0.7 fold; the “Fold increase for EAAT2, 24 h” value worked out at 1.9 ± 0.9 fold; the “SAR comparison of activity” value is reported as “essentially the same potency as 1”.

With `Clc1ccc(CSc2ccc(-c3ccccn3)nn2)c(Cl)c1` [Compound 7-21], the “Fold increase for EAAT2, 4 h” value is given as 1.8 ± 0.5 fold and the “SAR comparison of activity” value is recorded as “equivalent to 1”.

For the compound `Cc1cccc(CSc2ccc(-c3ccccn3)nn2)c1` [Compound 7-27], the “Fold increase for EAAT2, 4 h” value worked out at 2.0 ± 0.2 fold; the “Fold increase for EAAT2, 24 h” value is listed as 2.8 ± 0.5 fold; the “SAR comparison of activity” value is given as “less potent”.

For `Cc1ccc(Sc2ccc(-c3ccccn3)nn2)c(C)c1` [Compound 7-29], the “Fold increase for EAAT2, 4 h” value was 1.2 ± 0.3 fold; the “Fold increase for EAAT2, 24 h” value was 2.2 ± 0.3 fold; the “SAR comparison of activity” value is recorded as “decreased potency”.

With `Cc1ccc(COc2ccc(-c3ccccn3)nn2)c(C)c1` [Compound 8-7], the “Fold increase for EAAT2, 24 h” value was 2.0 ± 0.9 fold.

Take `Fc1ccc(CSc2ccc(-c3ccccn3)nn2)c(Cl)c1` [Compound 7-35]: the “Fold increase for EAAT2, 4 h” value came out at 1.6 ± 0.6 fold and the “Fold increase for EAAT2, 24 h” value came to 1.7 ± 0.4 fold.

As for `Fc1cccc(Cl)c1CSc1ccc(-c2ccccn2)nn1` [Compound 1], the “Fold increase for EAAT2, 24 h” value is 2.0 ± 0.8 fold. Moreover, the “EAAT2 protein levels, dose dependence” value (after 24 h exposure) is listed as “dose-dependent increase”.

Values taken from patent US9447075B2, “Pyridazine derivatives as EAAT2 activators” (The Brigham and Women's Hospital, Inc., priority 2011, dated 2016).
